Legend:
[1] = test system: whole human blood; test: In vitro production of Aα 17-21 epitope containing peptide in human blood, other membrane perturbators with cytochalasin B; assay type: cell-based; settings: 5 mg/ml cytochalasin B
Experimental: Other known membrane perturbators have been used to evaluate the in vitro production of the epitope containing cleavage peptide Aα 17-21 in human blood. Aliquots of freshly-drawn heparinized whole blood were incubated for 25 minutes at 37°C in the presence of either 5 mg/ml cytochalasin B and concentrations of phorbol-12-myristate-13-acetate (PMA) ranging up to 20 mM or in the presence of the combination of 5 mg/ml cytochalasin B and concentrations of n-formyl-L-norleucyl-L-leucyl-L-phenylalanine (FNLP) ranging up to 20 mM. Plasma was collected, prepared and assayed as described above.

[2] = target: T1, human leukocyte elastase (Homo sapiens, UniProt P08246); test: Elastase inhibitor activity assay: A23187-stimulated fibrinogen cleavage peptide production in whole human blood; assay type: cell-based; settings: A23187 150 mM
T1 construct: exposure of whole human blood to calcium ionophore A23187 results in elastase cleavage product by allowing the release of neutrophil elastase; endogenous in cells; host or cells: leukocytes (neutrophils) in freshly drawn heparinized whole human blood, stimulated with A23187
T1 sequence (P08246 30-267): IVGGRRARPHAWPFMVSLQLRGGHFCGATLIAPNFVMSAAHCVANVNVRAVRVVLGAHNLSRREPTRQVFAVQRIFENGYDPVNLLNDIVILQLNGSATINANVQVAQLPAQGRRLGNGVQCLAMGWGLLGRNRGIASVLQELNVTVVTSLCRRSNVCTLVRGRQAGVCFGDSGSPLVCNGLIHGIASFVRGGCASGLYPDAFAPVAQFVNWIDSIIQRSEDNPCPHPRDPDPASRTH
Experimental: The above defined assay technology is used to monitor the activity of human elastase inhibitors on human leukocyte elastase activity in human and primate blood. […] Replicate aliquots of freshly-drawn heparinized whole human blood are prepared with concentrations of elastase inhibitor ranging up to about 300 mg/ml. Following a brief pre-incubation with the inhibitor, a membrane perturbator, such as calcium ionophore A23187, is added at a concentration of between about 75 mM and about 300 mM. Non-membrane perturbator controls containing blood and perturbator-only controls are included to measure the extent of uninhibited peptide generation. All assay samples are incubated at about 37°C for about 25 minutes. The plasma is then prepared and assayed for fibrinogen cleavage products as described above.
The effect of the elastase inhibitor 3-Acetoxymethyl-1a-methoxy-6-oxo-5-thia-1-azabicyclo[4.2.0]oct-2-ene-2-(2-(S)-carboxypyrrolidinecarboxamide)5,5-dioxide (compound 1) on the calcium ionophore A23187-induced fibrinogen cleavage peptide production was evaluated. Replicate 2 ml aliquots of freshly-drawn heparinized whole human blood were prepared with concentrations of compound 1 ranging up to […]. Following a brief pre-incubation of 5 minutes at 37°C, calcium ionophore A23187 was added to a final concentration of 150 mM. Non-ionophore containing blood and ionophore-only (no inhibitor) controls were included to measure the extent of uninhibited peptide generation. All aliquots were incubated at 37°C for 25 minutes, the plasma collected, processed and assayed for fibrinogen cleavage peptide as described above.

[3] = test system: leukocyte elastase; test: Ionophore-induced peptide production in blood drawn from an elastase inhibitor-treated chimpanzee; assay type: in vivo
Experimental: In vivo inhibition of fibrinogen cleavage products following treatment of primates with an elastase inhibitor is evaluated. Blood or fluid samples are collected both before and after treatment with either an elastase inhibitor or saline. Each heparinized blood sample is divided into about 4 aliquots (about 1 ml) and processed as described above. Treatment of an animal with an elastase inhibitor causes a marked reduction in the amount of elastase cleavage product produced.
Two chimpanzees were anesthetized and fitted with venous catheters for the collection of blood. Blood was collected from each animal at intervals over a 60 minute period prior to the administration of the elastase inhibitor. All blood samples were collected in heparin. After the initial 60 minute period one animal was given an intravenous injection of 10 mg/kg of the elastase inhibitor compound 1 while the other animal received an equivalent volume of normal saline. Additional heparinized blood samples were taken from both animals at regular intervals over the next 60 minutes. Each freshly-drawn sample of whole heparinized chimpanzee blood was divided into 4 aliquots. Calcium ionophore A23187 was added at a final concentration of 150 mM to two of the aliquots and an equivalent volume of the DMSO vehicle was added to the other two. All blood samples were incubated at 37° for 25 minutes, plasma collected and assayed as described above.
Elastase inhibitor was infused into the treated animal at time 0.

## CCCCCCCCCCCCCC(=O)O[C@@H]1[C@@H](C)[C@@]2(O)[C@@H](C=C(CO)C[C@]3(O)C(=O)C(C)=C[C@@H]23)[C@@H]2C(C)(C)[C@]12OC(C)=O [PMA, phorbol-12-myristate-13-acetate]
[1]; PMA 0.003 mMolar, 25 minutes at 37°C
  Aα 17-21 Epitope Containing Peptide Produced (picomoles/ml plasma): 0.0 picomoles/ml plasma
[1]; PMA 0.010 mMolar
  Aα 17-21 Epitope Containing Peptide Produced (picomoles/ml plasma): 0.3 picomoles/ml plasma
[1]; PMA 0.03 mMolar
  Aα 17-21 Epitope Containing Peptide Produced (picomoles/ml plasma): 0.3 picomoles/ml plasma
[1]; PMA 0.10 mMolar
  Aα 17-21 Epitope Containing Peptide Produced (picomoles/ml plasma): 0.4 picomoles/ml plasma
[1]; PMA 0.30 mMolar
  Aα 17-21 Epitope Containing Peptide Produced (picomoles/ml plasma): 0.9 picomoles/ml plasma
[1]; PMA 1.0 mMolar
  Aα 17-21 Epitope Containing Peptide Produced (picomoles/ml plasma): 1.5 picomoles/ml plasma
[1]; PMA 3.0 mMolar
  Aα 17-21 Epitope Containing Peptide Produced (picomoles/ml plasma): 2.6 picomoles/ml plasma
[1]; PMA 10.0 mMolar
  Aα 17-21 Epitope Containing Peptide Produced (picomoles/ml plasma): 3.0 picomoles/ml plasma
[1]; PMA 20.0 mMolar
  Aα 17-21 Epitope Containing Peptide Produced (picomoles/ml plasma): 3.7 picomoles/ml plasma

## COC1C(=O)N2C(C(=O)N3CCCC3C(=O)O)=C(COC(C)=O)CS(=O)(=O)C12 [compound 1, 3-Acetoxymethyl-1a-methoxy-6-oxo-5-thia-1-azabicyclo[4.2.0]oct-2-ene-2-(2-(S)-carboxypyrrolidinecarboxamide)5,5-dioxide]
[2]; Elastase Inhibitor 1 mg/ml
  Cleavage Product Produced picomoles/ml: 2.3 picomoles/ml
[2]; Elastase Inhibitor 1 mg/ml, read-out: Percent Inhibition
  inhibition at 1000 µg/mL: 4%
[2]; Elastase Inhibitor 5 mg/ml
  Cleavage Product Produced picomoles/ml: 1.6 picomoles/ml
[2]; Elastase Inhibitor 10 mg/ml
  Cleavage Product Produced picomoles/ml: 1.6 picomoles/ml
[2]; Elastase Inhibitor 20 mg/ml
  Cleavage Product Produced picomoles/ml: 1.5 picomoles/ml
[2]; Elastase Inhibitor 30 mg/ml
  Cleavage Product Produced picomoles/ml: 1.2 picomoles/ml
[2]; Elastase Inhibitor 40 mg/ml
  Cleavage Product Produced picomoles/ml: 0.8 picomoles/ml
[2]; Elastase Inhibitor 80 mg/ml
  Cleavage Product Produced picomoles/ml: 0.4 picomoles/ml
[3]; Time 1.0 min after intravenous injection of 10 mg/kg, blood stimulated with A23187 150 mM
  A 1-21 Peptide Produced (picomoles/ml plasma) Treated: 1.10 picomoles/ml plasma
[3]; Time 2.5 min after intravenous 10 mg/kg
  A 1-21 Peptide Produced (picomoles/ml plasma) Treated: 1.30 picomoles/ml plasma
[3]; Time 5.0 min after intravenous 10 mg/kg
  A 1-21 Peptide Produced (picomoles/ml plasma) Treated: 1.60 picomoles/ml plasma
[3]; Time 7.5 min after intravenous 10 mg/kg
  A 1-21 Peptide Produced (picomoles/ml plasma) Treated: 2.00 picomoles/ml plasma
[3]; Time 10.0 min after intravenous 10 mg/kg
  A 1-21 Peptide Produced (picomoles/ml plasma) Treated: 1.80 picomoles/ml plasma
[3]; Time 12.5 min after intravenous 10 mg/kg
  A 1-21 Peptide Produced (picomoles/ml plasma) Treated: 1.70 picomoles/ml plasma
[3]; Time 15.0 min after intravenous 10 mg/kg
  A 1-21 Peptide Produced (picomoles/ml plasma) Treated: 0.98 picomoles/ml plasma
[3]; Time 20.0 min after intravenous 10 mg/kg
  A 1-21 Peptide Produced (picomoles/ml plasma) Treated: 1.90 picomoles/ml plasma
[3]; Time 30.0 min after intravenous 10 mg/kg
  A 1-21 Peptide Produced (picomoles/ml plasma) Treated: 2.20 picomoles/ml plasma
[3]; Time 40.0 min after intravenous 10 mg/kg
  A 1-21 Peptide Produced (picomoles/ml plasma) Treated: 3.10 picomoles/ml plasma
[3]; Time 50.0 min after intravenous 10 mg/kg
  A 1-21 Peptide Produced (picomoles/ml plasma) Treated: 2.60 picomoles/ml plasma
[3]; Time 60.0 min after intravenous 10 mg/kg
  A 1-21 Peptide Produced (picomoles/ml plasma) Treated: 2.50 picomoles/ml plasma
[3]; treated chimpanzee, 10 mg/kg intravenous, in words
  levels of the fibrinogen peptide produced in response to calcium ionophore A23187 after infusion: markedly lower levels

## n-formyl-L-norleucyl-L-leucyl-L-phenylalanine [FNLP]
[1]; FNLP 0.001 mMolar, 25 minutes at 37°C
  Aα 17-21 Epitope Containing Peptide Produced (picomoles/ml plasma): 0.0 picomoles/ml plasma
[1]; FNLP 0.003 mMolar
  Aα 17-21 Epitope Containing Peptide Produced (picomoles/ml plasma): 0.0 picomoles/ml plasma
[1]; FNLP 0.010 mMolar
  Aα 17-21 Epitope Containing Peptide Produced (picomoles/ml plasma): 0.0 picomoles/ml plasma
[1]; FNLP 0.03 mMolar
  Aα 17-21 Epitope Containing Peptide Produced (picomoles/ml plasma): 0.4 picomoles/ml plasma
[1]; FNLP 0.1 mMolar
  Aα 17-21 Epitope Containing Peptide Produced (picomoles/ml plasma): 0.9 picomoles/ml plasma
[1]; FNLP 0.3 mMolar
  Aα 17-21 Epitope Containing Peptide Produced (picomoles/ml plasma): 1.1 picomoles/ml plasma
[1]; FNLP 1.0 mMolar
  Aα 17-21 Epitope Containing Peptide Produced (picomoles/ml plasma): 1.1 picomoles/ml plasma
[1]; FNLP 3.0 mMolar
  Aα 17-21 Epitope Containing Peptide Produced (picomoles/ml plasma): 1.3 picomoles/ml plasma
[1]; FNLP 10.0 mMolar
  Aα 17-21 Epitope Containing Peptide Produced (picomoles/ml plasma): 1.2 picomoles/ml plasma
[1]; FNLP 20.0 mMolar
  Aα 17-21 Epitope Containing Peptide Produced (picomoles/ml plasma): 1.3 picomoles/ml plasma
